Common to all, as to type: cell-based
Data set [1] deals with human PBMC. As to the kind of experiment: IL-8 release in human PBMC (ELISA). The following applies: Homo sapiens, PBMC, 18 h; 0.5 μM; IL-8 release, normalized to LPS positive control=100. The method, then:
In vitro activities in human peripheral blood mononuclear cells (PBMC). Human PBMC were isolated from buffy coats obtained from the San Diego Blood Bank (San Diego, Calif.) as described previously.^5,6 PBMC (1×10^6/mL) were incubated with various compounds in complete RPMI (Omega Scientific) for 18 h at 37° C., 5% CO2 and culture supernatants were collected. The levels of IL-8 in the supernatants were determined by ELISA (BD Biosciences).
(ELISA stands for enzyme-linked immunosorbent assay.)

Data set [2] has as its target T1, TLR4/MD-2/CD14 (Homo sapiens, UniProt O00206+Q9Y6Y9).
T1 construct: host or cells: HEK293 (HEK Blue hTLR4)
Kind of data set: hTLR4 HEK Blue reporter cells, NF-κB SEAP secretion (QuantiBlue OD630). The method, then: In vitro assays using TLR reporter cell lines. Murine or humanTLR4 HEK Blue™ cells (Invivogen, 2.5×10^4 cells per well of a 96 well plate), or NF-κB/SEAPorter™ HEK 293 cells (Imgenex, San Diego, Calif.) for human TLR2, TLR3, TLR5, TLR7, TLR8, or TLR9 (5×10^4 cells per well of 96 well plate) were incubated with graded doses of the test compound. The culture supernatants were harvested after a 20-24 h incubation period. Secreted alkaline phosphatase (SEAP) activity in the supernatants was determined by a colorimetric assay, using either the SEAPorter Assay Kit (Imgenex, San Diego, Calif.), with absorbance read at 405 nm, or QuantiBlue (Invivogen), with absorbance read at 630 nm. In some experiments, graded concentrations of LPS-RS ([…], Invivogen) were used to test TLR4-specific binding of the hit compound.

In data set [3] the test system is HepG2 cells. As to the kind of experiment: MTT assay in HepG2 cells. To be noted: compounds tested at 10 μM; normalized with OD570-650 of vehicle treatment; in % (unit assumed). Background: Tetrazolium assays rely on reduction of a dye to a coloured formazan, in cell work by metabolically active cells.
Data set [4] addresses T2, human TLR4/MD-2 (Homo sapiens, UniProt O00206+Q9Y6Y9).
T2 construct: expressed in transfected cells; host or cells: bone marrow derived macrophages of human TLR4 transgenic mice on a murine TLR4/MD-2 null C57BL/6 background (gift of Dr. L. Hajjar)
Kind of data set: BMDM from transgenic mice expressing human TLR4/MD-2 (IL-6, IP-10). To be noted: BMDM from human TLR4/MD-2 transgenic mice deficient for murine TLR4/MD-2. An excerpt:
Animals. Seven to 9 week-old C57BL/6 (wild type, WT) and Cd14^−/− (C57BL/6 background) mice were purchased from the Jackson Laboratories (Bar Harbor, Mass.). Tlr4^−/− mice (C57BL/6 background) were a gift from Dr. Shizuo Akira (Osaka University, Japan) and were backcrossed for 10 generations onto the C57BL/6 background at University of California, San Diego (UCSD). MD-2^−/− mice (C57BL/6 background) were originally generated by Dr. K. Miyake (University of Tokyo, Tokyo, Japan) and were kindly provided by Dr. L. Hajjar (University of Washington, Seattle, Wash.). Human TLR4 transgenic mice on murine TLR4/MD-2 null C57BL/6 background were kindly provided by Dr. L. Hajjar.^3 All animal experiments were approved by the UCSD Institutional Animal Care and Use Committee.
In vitro cytokine induction in bone marrow derived dendritic cells (BMDC) and macrophages (BMDM). […] The levels of IL-6 or IP-10 in the culture supernatants were determined by ELISA (BD Biosciences, La Jolla, Calif.).^5 Finally, all levels of cytokine release were normalized to those of LPSstimulation within each experiment, set at 100.

T1 sequence (O00206 24-839): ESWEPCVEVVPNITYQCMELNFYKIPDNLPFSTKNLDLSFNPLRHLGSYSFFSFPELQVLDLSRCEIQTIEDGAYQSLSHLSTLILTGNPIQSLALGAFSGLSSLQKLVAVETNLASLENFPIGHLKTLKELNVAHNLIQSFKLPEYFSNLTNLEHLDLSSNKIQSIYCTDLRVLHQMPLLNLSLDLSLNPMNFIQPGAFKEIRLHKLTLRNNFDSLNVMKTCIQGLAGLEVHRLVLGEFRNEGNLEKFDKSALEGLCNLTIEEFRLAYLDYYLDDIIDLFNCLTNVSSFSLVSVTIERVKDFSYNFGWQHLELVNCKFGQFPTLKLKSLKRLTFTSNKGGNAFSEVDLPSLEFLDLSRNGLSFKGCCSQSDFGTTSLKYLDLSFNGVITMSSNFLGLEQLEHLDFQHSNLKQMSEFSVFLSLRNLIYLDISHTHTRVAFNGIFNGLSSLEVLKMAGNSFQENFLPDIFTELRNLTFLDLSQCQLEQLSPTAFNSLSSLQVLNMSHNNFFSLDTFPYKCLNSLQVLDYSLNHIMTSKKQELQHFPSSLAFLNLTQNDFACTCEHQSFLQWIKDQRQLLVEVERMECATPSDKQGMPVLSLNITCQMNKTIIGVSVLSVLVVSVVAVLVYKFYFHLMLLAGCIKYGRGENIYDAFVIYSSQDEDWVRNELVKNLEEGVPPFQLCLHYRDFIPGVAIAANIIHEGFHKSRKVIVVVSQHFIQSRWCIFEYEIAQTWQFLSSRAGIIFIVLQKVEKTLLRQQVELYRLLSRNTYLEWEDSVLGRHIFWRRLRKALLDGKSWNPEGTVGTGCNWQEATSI
T1 sequence (Q9Y6Y9 19-160): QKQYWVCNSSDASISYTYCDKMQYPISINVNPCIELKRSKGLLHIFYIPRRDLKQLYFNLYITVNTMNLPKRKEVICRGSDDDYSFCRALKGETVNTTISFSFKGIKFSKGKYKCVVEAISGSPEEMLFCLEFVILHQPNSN
T2 sequence (O00206 24-839): as the sequence (O00206 24-839) above
T2 sequence (Q9Y6Y9 19-160): as the sequence (Q9Y6Y9 19-160) above

Molecule `CCOC(=O)c1nc(Nc2cc(Oc3ccccc3Br)cc([N+](=O)[O-])c2)c2ccccc2n1` [Compound 1g, Ethyl 4-((3-(2-bromophenoxy)-5-nitrophenyl)amino)quinazoline-2-carboxylate] came in with an IL-8 release (% of LPS control) at 0.5 µM in data set [1] of 35.6%. Also, the “hTLR4 0.5 μM” value in data set [2] (0.5 μM, Quantiblue OD630 of hTLR4 HEK Blue cells, normalized to LPS positive control=100) amounted to 79.0. The “Activity relative to compound 1a (SAR in words)” value in data set [2] (TLR4 reporter cells and hPBMC) was “enhanced”. For the same molecule, the “HepG2 MT” value in data set [3] is on record as 90.8. The “Activation of transgenic human TLR4/MD-2 complex relative to mouse TLR4/MD-2” value in data set [4] is reported as “to a greater extent”.
